Measured values taken from patent US12595269B2, “Morpholine-like monoamine releasers” (Solvonis Therapeutics Ireland Holdings Limited, priority 2022, dated 2026).

Test system: MDCKII cells
Test: Apparent permeability (Papp AB) in MDCKII cells
Type: in vitro ADME, Canine
Settings: MDCKII cells, pH 7.4
Method: Methods and Procedure: This study was conducted in compliance with previously described procedures to assure data integrity and adherence to GLP regulations. The experiments described herein were designed to evaluate the apparent permeability (Papp) of test compounds at pH 7.4. Additionally, the MDCKII-MDR1 cell line (Madin-Darby Canine Kidney clone II cell line heterologously expressing the human P-glycoprotein transporter) and mock cell line MDCKII were used to determine whether a compound acted as a P-gp substrate, in the absence and in the presence of the potent P-gp inhibitor. Test control items (digoxin, metoprolol, and atenolol) and control P-gp inhibitor (GF120918) stock solution were prepared in DMSO. Bidirectional assays (Apical to Basolateral [AB] and Basolateral to Apical [BA]) were run, in both the absence and presence of P-gp inhibitor GF120918 in MDCKII-MDR1 and mock cell line MDCKII, using as transport buffer HBSSH at a pH of 7.4 (n=3).
Compounds were tested at a single concentration (i.e. at 3 or 10 μM) at one time point (i.e. 60 min). Alternative concentrations or time-points may also be investigated. As reference compounds, digoxin (P-gp substrate), atenolol (low permeable compound) and metoprolol (high permeable compound) were included at a single concentration (e.g., 10 or 25 μM) and at single time point (e.g., 60 min). Digoxin transport was evaluated in two directions (apical-to-basolateral [AB] and basolateral-to-apical [BA]) in the absence and presence of GF120918 or in mock cells, MDCKII (n=3). Atenolol and metoprolol were only tested in the AB direction in absence of GF120918 or in mock cells, MDCKII (n=3). The integrity of the cell monolayer was evaluated after the permeability experiment using the paracellular permeability marker Lucifer yellow (LY) in the apical to basolateral direction in each well.
MDCKII or MDCKII-MDRI cells cultivated using DMEM (high glucose, GlutaMAX™ supplemented with pyruvate, 10% FBS HI and Pen/Strep) and seeded onto microporous PET (Polyethylene Terephthalate) membranes in HTS 96-Multiwell Insert plates at density of ˜175,000-245,000 cells/cm^2 (25000-35000 cells/well; 50 μL/well) in DMEM medium and incubated for 3-4 days at 37° C.-5% CO2. Medium was changed a day before the experiment.
Stock solutions of test items were prepared in DMSO at a concentration of 5 or 10 mM and stored at −20° C. until use. The potent P-gp inhibitor, GF120918 (stock solution 10 mM) and the reference controls digoxin, atenolol, metoprolol (stock solutions 3 or 10 mM) were prepared in DMSO and stored at −20° C. until use.
Donor working solutions of test items and reference controls will be prepared at a concentration of 10 or 25 μM, diluting the stock solutions in HBSSH. Receiver working solutions contained transport buffer only. […]
MDCKII and MDCKII-MDR1 cells were preincubated (37° C., 15 to 30 minutes) in receiver working solutions containing transport buffer on apical (A) and basolateral (B) sides. Following pre-incubation, test items and control items (digoxin) transport were measured in two directions (apical to basolateral [AB]) and basolateral to apical [BA]), and these directions were performed in triplicate sets of wells, in both the absence and presence of […] GF120918 or mock MDCKII cells. […] Transport of permeability reference controls, atenolol and metoprolol, were measured in one direction (apical to basolateral [AB]) (n=3). […]

CNC(C)Cc1ccc2c(c1)OCO2 (stereo not shown) [MDMA, reference compound]
Permeability Classification: high permeability
